Experimental data from publication PMC4703832, “Haem-activated promiscuous targeting of artemisinin in Plasmodium falciparum” (Nature Communications, 2015).

Assays:
[1] = target: T1, LDH (L-lactate dehydrogenase) (Plasmodium falciparum, UniProt Q76NM3); test: LDH inhibition assay, absorbance at […] nm; type: biochemical; conditions: 0-80 uM artesunate, haemin 200 uM and L-ascorbic acid 200 uM, 4 h preincubation at 37 °C; covalent, haem-activated
T1 construct: gene PF3D7_1324900; gene amplified from 3D7 genomic DNA, pET28a, E. coli BL21(DE3)-star, Ni-NTA purified

PyrK (pyruvate kinase) = target: T2, PyrK (pyruvate kinase) (Plasmodium falciparum, UniProt C6KTA4); test: pyruvate kinase inhibition assay, absorbance at […] nm; type: biochemical; conditions: 0-80 uM artesunate, haemin 200 uM and L-ascorbic acid 200 uM, 4 h preincubation at 37 °C; covalent, haem-activated
T2 construct: gene PF3D7_0626800
T2 sequence (C6KTA4 1-511): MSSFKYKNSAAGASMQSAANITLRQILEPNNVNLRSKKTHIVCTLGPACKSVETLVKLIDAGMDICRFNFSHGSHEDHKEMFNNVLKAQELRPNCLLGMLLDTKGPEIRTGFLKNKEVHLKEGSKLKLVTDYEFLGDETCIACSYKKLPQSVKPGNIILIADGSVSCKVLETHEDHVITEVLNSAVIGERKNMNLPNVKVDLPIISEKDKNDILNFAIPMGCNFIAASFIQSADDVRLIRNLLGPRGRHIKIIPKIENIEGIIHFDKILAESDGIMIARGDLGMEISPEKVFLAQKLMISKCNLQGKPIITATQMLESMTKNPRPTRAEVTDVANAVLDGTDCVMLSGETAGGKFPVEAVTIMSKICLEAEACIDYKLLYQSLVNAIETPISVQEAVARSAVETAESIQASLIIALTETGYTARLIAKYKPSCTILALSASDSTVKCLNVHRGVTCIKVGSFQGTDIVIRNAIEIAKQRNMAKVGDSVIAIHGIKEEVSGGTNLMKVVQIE

T1 sequence (Q76NM3 1-316): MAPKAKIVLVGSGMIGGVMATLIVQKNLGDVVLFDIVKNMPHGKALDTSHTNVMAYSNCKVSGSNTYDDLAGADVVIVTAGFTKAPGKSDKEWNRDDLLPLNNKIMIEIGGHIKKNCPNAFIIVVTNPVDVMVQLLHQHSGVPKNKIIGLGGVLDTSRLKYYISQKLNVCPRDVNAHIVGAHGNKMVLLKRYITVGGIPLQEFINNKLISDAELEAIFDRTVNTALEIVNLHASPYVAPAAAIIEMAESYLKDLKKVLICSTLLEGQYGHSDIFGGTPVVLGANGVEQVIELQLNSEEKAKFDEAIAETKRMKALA

With C[C@H]1[C@H](OC(=O)CCC(=O)O)O[C@@H]2O[C@@]3(C)CC[C@H]4[C@H](C)CC[C@@H]1[C@@]24OO3 [Arts, artesunate] the dose-dependent inhibition [1] was “Functional assays showed that artesunate inhibits their enzymatic activities in a dose-dependent manner” and the dose-dependent inhibition (PyrK (pyruvate kinase)) was “Functional assays showed that artesunate inhibits their enzymatic activities in a dose-dependent manner”.
